ChEMBL document CHEMBL6127078, “Discovery of 7-(1-methyl-1H-pyrazol-4-yl)-1,6-naphthyridine derivatives as potent inhibitors of rearranged during transfection (RET) and RET solvent-front mutants for overcoming selpercatinib resistance” (Eur J Med Chem, 2024)

The compounds below were run on BaF3 (assay: Antiproliferative activity against mouse BaF3 cells harbouring KIF5B-RET G810R mutant assessed as inhibition of cell viability). Details: not given.
Type: functional, cell-based
In the case of COc1ccc(CN2C3CC2CN(c2ccc(-c4cc(OCC(C)(C)O)cn5ncc(C#N)c45)cn2)C3)cn1 [SELPERCATINIB], the IC50 is reported as 2.17 µM.

These compounds were tested on BaF3 (assay: Antiproliferative activity against mouse BaF3 cells harbouring CCDC6-RET wild type assessed as inhibition of cell viability). Details: not given.
Type: functional, cell-based
Work on COc1ccc(CN2C3CC2CN(c2ccc(-c4cc(OCC(C)(C)O)cn5ncc(C#N)c45)cn2)C3)cn1 [SELPERCATINIB] yielded an IC50 of 0.0095 µM.

These compounds were tested on BaF3 (assay: Antitumor activity against mouse BaF3 cells harbouring KIF5B-RET-wild type xenografted in mouse model assessed as tumor growth inhibition at 10 mg/kg BID measured upto 14 days relative to control). Details: BaF3, 336 h, time <= 14 day, read-out: TGI.
Type: functional
COc1ccc(CN2C3CC2CN(c2ccc(-c4cc(OCC(C)(C)O)cn5ncc(C#N)c45)cn2)C3)cn1 [SELPERCATINIB] showed an inhibition in vivo at 10 mg/kg of 89%.

What follows are compounds tested on Proto-oncogene tyrosine-protein kinase receptor Ret (Homo sapiens), P07949 [V804L] (assay: Potency index, ratio of Vandetanib IC50 to test compound IC50 for inhibition of RET V804L mutant (unknown origin) by FRET-based ZLyte kinase assay). Details: not given.
Proto-oncogene tyrosine-protein kinase receptor Ret (Homo sapiens), P07949 [V804L], sequence (P07949 whole entry V804L): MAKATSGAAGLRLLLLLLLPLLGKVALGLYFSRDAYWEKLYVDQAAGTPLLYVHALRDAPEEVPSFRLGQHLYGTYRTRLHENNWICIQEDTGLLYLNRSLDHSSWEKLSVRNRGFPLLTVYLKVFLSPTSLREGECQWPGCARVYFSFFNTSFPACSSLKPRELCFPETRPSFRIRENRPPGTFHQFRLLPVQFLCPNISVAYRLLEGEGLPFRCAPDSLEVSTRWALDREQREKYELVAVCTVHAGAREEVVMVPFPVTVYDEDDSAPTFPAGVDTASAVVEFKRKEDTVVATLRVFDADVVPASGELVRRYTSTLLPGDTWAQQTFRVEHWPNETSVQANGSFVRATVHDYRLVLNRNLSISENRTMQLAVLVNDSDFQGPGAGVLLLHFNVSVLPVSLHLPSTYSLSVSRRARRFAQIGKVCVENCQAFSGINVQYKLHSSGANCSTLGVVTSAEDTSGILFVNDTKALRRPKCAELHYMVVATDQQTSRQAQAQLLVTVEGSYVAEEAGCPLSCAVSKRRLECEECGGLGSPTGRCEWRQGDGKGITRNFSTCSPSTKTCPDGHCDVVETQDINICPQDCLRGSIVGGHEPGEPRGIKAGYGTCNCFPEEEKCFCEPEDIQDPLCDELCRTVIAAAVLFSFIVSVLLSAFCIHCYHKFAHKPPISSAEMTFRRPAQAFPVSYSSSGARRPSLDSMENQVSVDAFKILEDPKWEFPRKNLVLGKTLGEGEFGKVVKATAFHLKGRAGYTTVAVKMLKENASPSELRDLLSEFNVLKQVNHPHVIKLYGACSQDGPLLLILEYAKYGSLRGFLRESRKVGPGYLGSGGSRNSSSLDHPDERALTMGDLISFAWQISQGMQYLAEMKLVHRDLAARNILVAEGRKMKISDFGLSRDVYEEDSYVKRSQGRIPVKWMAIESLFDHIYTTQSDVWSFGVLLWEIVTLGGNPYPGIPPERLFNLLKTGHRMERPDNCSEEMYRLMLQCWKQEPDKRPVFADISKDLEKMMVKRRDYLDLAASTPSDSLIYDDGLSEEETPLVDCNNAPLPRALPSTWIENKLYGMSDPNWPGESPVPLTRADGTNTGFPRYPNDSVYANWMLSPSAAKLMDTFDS
In the case of COc1ccc(CN2C3CC2CN(c2ccc(-c4nccc5ncccc45)cn2)C3)cn1, the Ratio IC50 is reported as 16.

What follows are compounds tested against Proto-oncogene tyrosine-protein kinase receptor Ret (Homo sapiens, UniProt P07949, M918T) (assay: Inhibition of RET M918T mutant (unknown origin) by FRET-based ZLyte kinase assay). Details: not given.
Proto-oncogene tyrosine-protein kinase receptor Ret (Homo sapiens, UniProt P07949, M918T), sequence (P07949 29-1114 M918T limits assumed): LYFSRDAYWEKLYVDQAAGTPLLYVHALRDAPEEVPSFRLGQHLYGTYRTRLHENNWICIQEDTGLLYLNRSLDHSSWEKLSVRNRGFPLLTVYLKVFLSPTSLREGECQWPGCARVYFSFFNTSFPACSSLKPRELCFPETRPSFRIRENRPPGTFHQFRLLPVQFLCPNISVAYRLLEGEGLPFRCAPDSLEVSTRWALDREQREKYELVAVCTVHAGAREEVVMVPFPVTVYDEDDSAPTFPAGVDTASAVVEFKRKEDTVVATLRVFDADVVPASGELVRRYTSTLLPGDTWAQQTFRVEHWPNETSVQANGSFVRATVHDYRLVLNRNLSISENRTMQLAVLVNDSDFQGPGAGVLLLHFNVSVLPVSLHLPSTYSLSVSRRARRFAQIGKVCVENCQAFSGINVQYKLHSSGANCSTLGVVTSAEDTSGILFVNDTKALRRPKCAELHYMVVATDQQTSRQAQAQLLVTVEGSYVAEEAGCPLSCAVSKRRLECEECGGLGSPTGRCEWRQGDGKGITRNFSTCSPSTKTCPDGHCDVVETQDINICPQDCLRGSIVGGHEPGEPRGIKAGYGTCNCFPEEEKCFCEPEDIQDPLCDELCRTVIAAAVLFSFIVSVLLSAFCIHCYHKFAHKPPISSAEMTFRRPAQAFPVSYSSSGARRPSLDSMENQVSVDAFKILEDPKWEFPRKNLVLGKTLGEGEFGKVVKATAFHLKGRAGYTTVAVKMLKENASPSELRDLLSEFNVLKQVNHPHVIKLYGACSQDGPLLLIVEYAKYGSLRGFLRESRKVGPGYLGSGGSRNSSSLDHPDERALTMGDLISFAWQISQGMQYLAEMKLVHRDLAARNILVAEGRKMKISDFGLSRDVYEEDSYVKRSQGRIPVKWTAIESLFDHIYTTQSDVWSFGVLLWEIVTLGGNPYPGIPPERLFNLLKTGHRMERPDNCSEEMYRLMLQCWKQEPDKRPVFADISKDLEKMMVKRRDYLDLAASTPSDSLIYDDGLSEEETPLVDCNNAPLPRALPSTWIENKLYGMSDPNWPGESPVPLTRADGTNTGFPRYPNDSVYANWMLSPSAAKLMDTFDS
In the case of COc1ccc(CC(=O)N2C3CC2CN(c2ccc(-c4nc(-c5cnn(C)c5)cc5ncccc45)cn2)C3)cn1, the IC50 is reported as 0.0049 µM. Compound COc1ccc(CN2C3CC2CN(c2ccc(-c4nc(-c5cnn(C)c5)cc5ncccc45)cn2)C3)cc1[N+](=O)[O-] has an IC50 of 0.127 µM. Work on COc1ccc(CN2C3CC2CN(c2ccc(-c4cccc5c4OCCO5)cn2)C3)cn1 yielded an IC50 greater than 1 µM. COc1ccc(CN2C3CC2CN(c2ccc(-c4nc(-c5ccncc5)cc5ncccc45)cn2)C3)cn1 showed an IC50 of 0.215 µM. In the case of COc1ccc(CN2C3CC2CN(c2ccc(-c4nc(C5CC5)cc5ncccc45)cn2)C3)cn1, the IC50 is reported as 0.0173 µM. COc1ccc(CN2C3CC2CN(c2ccc(-c4nc(-c5cnn(C)c5)cc5ncccc45)cn2)C3)cn1 was tested, and the IC50 was 0.0012 µM. COc1ccc(CN2C3CC2CN(c2ccc(-c4nc(-c5cnn(C)c5)cc5ncccc45)cn2)C3)cc1C(F)(F)F gave an IC50 of 0.0147 µM. With Cn1cc(-c2cc3ncccc3c(-c3ccc(N4CC5CC(C4)N5Cc4cccnc4)nc3)n2)cn1 the IC50 was 0.0335 µM. With COc1ccc(CN2C3CC2CN(c2ccc(-c4nc(-c5cnn(C)c5)cc5ncccc45)cn2)C3)cc1Cl the IC50 was 0.0113 µM. With Cn1cc(-c2cc3ncccc3c(-c3ccc(N4CC5CC(C4)N5C(=O)Cc4cc(F)cc(F)c4)nc3)n2)cn1 the IC50 was 0.0067 µM. Work on COc1ccc(CN2C3CC2CN(c2ccc(-c4nc(-c5cnn(C)c5)cc5ncccc45)cn2)C3)cc1F yielded an IC50 of 0.0006 µM. Work on COc1ccc(CN2C3CC2CN(c2ccc(-c4nc(Cl)cc5ncccc45)cn2)C3)cn1 yielded an IC50 of 0.0584 µM. In the case of Cn1cc(-c2cc3ncccc3c(-c3ccc(N4CC5CC(C4)N5C(=O)Cc4cccc(F)c4)nc3)n2)cn1, the IC50 is reported as 0.003 µM. COc1ccc(CN2C3CC2CN(c2ccc(-c4cccc5nccnc45)cn2)C3)cn1 showed an IC50 of 0.141 µM. With COc1ccc(CN2C3CC2CN(c2ccc(-c4nccc5ncccc45)cn2)C3)cn1 the IC50 was 0.0358 µM.

Each compound was assayed on Proto-oncogene tyrosine-protein kinase receptor Ret (Homo sapiens), P07949 [G810R] (assay: Potency index, ratio of selpercatinib IC50 to test compound IC50 for inhibition of RET G810R mutant (unknown origin) by FRET-based ZLyte kinase assay). Details: not given.
Proto-oncogene tyrosine-protein kinase receptor Ret (Homo sapiens), P07949 [G810R], sequence (P07949 whole entry G810R): as the sequence (P07949 whole entry V804L) above, with L804V, G810R counted along it
COc1ccc(CN2C3CC2CN(c2ccc(-c4nc(-c5cnn(C)c5)cc5ncccc45)cn2)C3)cn1 was tested, and the Ratio IC50 was 4. COc1ccc(CN2C3CC2CN(c2ccc(-c4nc(-c5cnn(C)c5)cc5ncccc45)cn2)C3)cc1F was tested, and the Ratio IC50 was 6.

What follows are compounds tested on BaF3 (assay: Antiproliferative activity against mouse BaF3 cells harbouring CCDC6-RET G810R mutant assessed as inhibition of cell viability). Details: not given.
Type: functional, cell-based
COc1ccc(CN2C3CC2CN(c2ccc(-c4cc(OCC(C)(C)O)cn5ncc(C#N)c45)cn2)C3)cn1 [SELPERCATINIB] gave an IC50 of 0.896 µM.

The compounds below were run on Proto-oncogene tyrosine-protein kinase receptor Ret (Homo sapiens), P07949 [G810R] (assay: Potency index, ratio of Vandetanib IC50 to test compound IC50 for inhibition of RET G810R mutant (unknown origin) by FRET-based ZLyte kinase assay). Details: not given.
For COc1ccc(CN2C3CC2CN(c2ccc(-c4nccc5ncccc45)cn2)C3)cn1, the Ratio IC50 was 4.

What follows are compounds tested against Proto-oncogene tyrosine-protein kinase receptor Ret (Homo sapiens, UniProt P07949) (assay: Inhibition of wild type RET (unknown origin) by FRET-based ZLyte kinase assay). Details: not given.
Proto-oncogene tyrosine-protein kinase receptor Ret (Homo sapiens, UniProt P07949), sequence (P07949 whole entry): as the sequence (P07949 whole entry V804L) above, with L804V counted along it
Compound COc1ccc(CC(=O)N2C3CC2CN(c2ccc(-c4nc(-c5cnn(C)c5)cc5ncccc45)cn2)C3)cn1 has an IC50 of 0.0057 µM. COc1ccc(CN2C3CC2CN(c2ccc(-c4nc(-c5cnn(C)c5)cc5ncccc45)cn2)C3)cc1[N+](=O)[O-] was tested, and the IC50 was 0.247 µM. For COc1ccc(CN2C3CC2CN(c2ccc(-c4cccc5c4OCCO5)cn2)C3)cn1, the IC50 was greater than 1 µM. COc1ccc(CN2C3CC2CN(c2ccc(-c4nc(-c5ccncc5)cc5ncccc45)cn2)C3)cn1 was tested, and the IC50 was 0.166 µM. COc1ccc(CN2C3CC2CN(c2ccc(-c4nc(C5CC5)cc5ncccc45)cn2)C3)cn1 was tested, and the IC50 was 0.0157 µM. COc1ccc(CN2C3CC2CN(c2ccc(-c4nc(-c5cnn(C)c5)cc5ncccc45)cn2)C3)cn1 gave an IC50 of 0.0038 µM. In the case of COc1ccc(CN2C3CC2CN(c2ccc(-c4nc(-c5cnn(C)c5)cc5ncccc45)cn2)C3)cc1C(F)(F)F, the IC50 is reported as 0.0375 µM. Cn1cc(-c2cc3ncccc3c(-c3ccc(N4CC5CC(C4)N5Cc4cccnc4)nc3)n2)cn1 showed an IC50 of 0.0267 µM. Work on COc1ccc(CN2C3CC2CN(c2ccc(-c4nc(-c5cnn(C)c5)cc5ncccc45)cn2)C3)cc1Cl yielded an IC50 of 0.0251 µM. Cn1cc(-c2cc3ncccc3c(-c3ccc(N4CC5CC(C4)N5C(=O)Cc4cc(F)cc(F)c4)nc3)n2)cn1 gave an IC50 of 0.0067 µM. Compound COc1ccc(CN2C3CC2CN(c2ccc(-c4nc(-c5cnn(C)c5)cc5ncccc45)cn2)C3)cc1F has an IC50 of 0.0055 µM. In the case of COc1ccc(CN2C3CC2CN(c2ccc(-c4nc(Cl)cc5ncccc45)cn2)C3)cn1, the IC50 is reported as 0.0693 µM. Cn1cc(-c2cc3ncccc3c(-c3ccc(N4CC5CC(C4)N5C(=O)Cc4cccc(F)c4)nc3)n2)cn1 gave an IC50 of 0.0048 µM. Compound COc1ccc(CN2C3CC2CN(c2ccc(-c4cccc5nccnc45)cn2)C3)cn1 has an IC50 of 0.172 µM. With COc1ccc(CN2C3CC2CN(c2ccc(-c4nccc5ncccc45)cn2)C3)cn1 the IC50 was 0.0576 µM.

These compounds were tested on BaF3 (assay: Antitumor activity against mouse BaF3 cells harbouring KIF5B-RET G810R mutant xenografted in mouse model assessed as tumor growth inhibition at 10 mg/kg BID measured upto 14 days relative to control). Details: BaF3, 336 h, time <= 14 day, read-out: TGI.
Type: functional
For COc1ccc(CN2C3CC2CN(c2ccc(-c4cc(OCC(C)(C)O)cn5ncc(C#N)c45)cn2)C3)cn1 [SELPERCATINIB], the inhibition in vivo at 10 mg/kg was 20%.

These compounds were tested against Proto-oncogene tyrosine-protein kinase receptor Ret (Homo sapiens, UniProt P07949, G810R) (assay: Inhibition of RET G810R mutant (unknown origin) by FRET-based ZLyte kinase assay). Details: not given.
Proto-oncogene tyrosine-protein kinase receptor Ret (Homo sapiens, UniProt P07949, G810R), sequence (P07949 29-1114 G810R limits assumed): as the sequence (P07949 29-1114 M918T limits assumed) above, with G782R, T890M counted along it
COc1ccc(CC(=O)N2C3CC2CN(c2ccc(-c4nc(-c5cnn(C)c5)cc5ncccc45)cn2)C3)cn1 was tested, and the IC50 was 0.132 µM. For COc1ccc(CN2C3CC2CN(c2ccc(-c4nc(C5CC5)cc5ncccc45)cn2)C3)cn1, the IC50 was 0.538 µM. Work on COc1ccc(CN2C3CC2CN(c2ccc(-c4nc(-c5cnn(C)c5)cc5ncccc45)cn2)C3)cn1 yielded an IC50 of 0.0562 µM. COc1ccc(CN2C3CC2CN(c2ccc(-c4nc(-c5cnn(C)c5)cc5ncccc45)cn2)C3)cc1C(F)(F)F was tested, and the IC50 was 0.116 µM. For Cn1cc(-c2cc3ncccc3c(-c3ccc(N4CC5CC(C4)N5Cc4cccnc4)nc3)n2)cn1, the IC50 was 0.371 µM. COc1ccc(CN2C3CC2CN(c2ccc(-c4nc(-c5cnn(C)c5)cc5ncccc45)cn2)C3)cc1Cl gave an IC50 of 0.0859 µM. With Cn1cc(-c2cc3ncccc3c(-c3ccc(N4CC5CC(C4)N5C(=O)Cc4cc(F)cc(F)c4)nc3)n2)cn1 the IC50 was 0.221 µM. With COc1ccc(CN2C3CC2CN(c2ccc(-c4nc(-c5cnn(C)c5)cc5ncccc45)cn2)C3)cc1F the IC50 was 0.0378 µM. For COc1ccc(CN2C3CC2CN(c2ccc(-c4nc(Cl)cc5ncccc45)cn2)C3)cn1, the IC50 was 0.229 µM. Cn1cc(-c2cc3ncccc3c(-c3ccc(N4CC5CC(C4)N5C(=O)Cc4cccc(F)c4)nc3)n2)cn1 showed an IC50 of 0.149 µM. For COc1ccc(CN2C3CC2CN(c2ccc(-c4nccc5ncccc45)cn2)C3)cn1, the IC50 was 0.186 µM.

The compounds below were run against Proto-oncogene tyrosine-protein kinase receptor Ret (Homo sapiens, UniProt P07949, V804L) (assay: Inhibition of RET V804L mutant (unknown origin) by FRET-based ZLyte kinase assay). Details: not given.
Proto-oncogene tyrosine-protein kinase receptor Ret (Homo sapiens, UniProt P07949, V804L), sequence (P07949 29-1114 V804L limits assumed): as the sequence (P07949 29-1114 M918T limits assumed) above, with V776L, T890M counted along it
Compound COc1ccc(CC(=O)N2C3CC2CN(c2ccc(-c4nc(-c5cnn(C)c5)cc5ncccc45)cn2)C3)cn1 has an IC50 of 0.0026 µM. Compound COc1ccc(CN2C3CC2CN(c2ccc(-c4nc(-c5cnn(C)c5)cc5ncccc45)cn2)C3)cc1[N+](=O)[O-] has an IC50 of 0.0952 µM. In the case of COc1ccc(CN2C3CC2CN(c2ccc(-c4cccc5c4OCCO5)cn2)C3)cn1, the IC50 is reported as greater than 1 µM. COc1ccc(CN2C3CC2CN(c2ccc(-c4nc(-c5ccncc5)cc5ncccc45)cn2)C3)cn1 gave an IC50 of 0.328 µM. For COc1ccc(CN2C3CC2CN(c2ccc(-c4nc(C5CC5)cc5ncccc45)cn2)C3)cn1, the IC50 was 0.0125 µM. COc1ccc(CN2C3CC2CN(c2ccc(-c4nc(-c5cnn(C)c5)cc5ncccc45)cn2)C3)cn1 gave an IC50 of 0.0004 µM. COc1ccc(CN2C3CC2CN(c2ccc(-c4nc(-c5cnn(C)c5)cc5ncccc45)cn2)C3)cc1C(F)(F)F gave an IC50 of 0.0226 µM. In the case of Cn1cc(-c2cc3ncccc3c(-c3ccc(N4CC5CC(C4)N5Cc4cccnc4)nc3)n2)cn1, the IC50 is reported as 0.0411 µM. COc1ccc(CN2C3CC2CN(c2ccc(-c4nc(-c5cnn(C)c5)cc5ncccc45)cn2)C3)cc1Cl was tested, and the IC50 was 0.0085 µM. Cn1cc(-c2cc3ncccc3c(-c3ccc(N4CC5CC(C4)N5C(=O)Cc4cc(F)cc(F)c4)nc3)n2)cn1 showed an IC50 of 0.0047 µM. COc1ccc(CN2C3CC2CN(c2ccc(-c4nc(-c5cnn(C)c5)cc5ncccc45)cn2)C3)cc1F showed an IC50 of 0.0003 µM. COc1ccc(CN2C3CC2CN(c2ccc(-c4nc(Cl)cc5ncccc45)cn2)C3)cn1 was tested, and the IC50 was 0.0572 µM. For Cn1cc(-c2cc3ncccc3c(-c3ccc(N4CC5CC(C4)N5C(=O)Cc4cccc(F)c4)nc3)n2)cn1, the IC50 was 0.0023 µM. COc1ccc(CN2C3CC2CN(c2ccc(-c4cccc5nccnc45)cn2)C3)cn1 showed an IC50 of 0.135 µM. For COc1ccc(CN2C3CC2CN(c2ccc(-c4nccc5ncccc45)cn2)C3)cn1, the IC50 was 0.0422 µM.

These compounds were tested on BaF3 (assay: Antiproliferative activity against mouse BaF3 cells harbouring KIF5B-RET V804L mutant assessed as inhibition of cell viability). Details: not given.
Type: functional, cell-based
With COc1ccc(CN2C3CC2CN(c2ccc(-c4cc(OCC(C)(C)O)cn5ncc(C#N)c45)cn2)C3)cn1 [SELPERCATINIB] the IC50 was 0.0178 µM.

These compounds were tested on BaF3 (assay: Antiproliferative activity against mouse BaF3 cells harbouring KIF5B-RET wild type assessed as inhibition of cell viability). Details: not given.
Type: functional, cell-based
For COc1ccc(CN2C3CC2CN(c2ccc(-c4cc(OCC(C)(C)O)cn5ncc(C#N)c45)cn2)C3)cn1 [SELPERCATINIB], the IC50 was 0.0082 µM.
